# Paper PMC4664181 (ChemMedChem, 2009)
# Entries after “also recorded” stand apart in the source; their conditions may differ. Like-named read-outs stand apart in the source and are kept apart here.
# Columns and labels:
# NR1/NR2D [1] = target: T1, NR1/NR2D (Rattus norvegicus, UniProt Q62645); settings: cited from earlier work
# native NMDA receptors [2] = settings: read-out: [3H]CGP39653 Ki; rat brain synaptosomes; cited from earlier work
# NR1/NR2A [3] = target: T2, NR1/NR2A (Rattus norvegicus, UniProt Q00959); settings: cited from earlier work
# T2 sequence (Q00959 23-1464, other chains not shown): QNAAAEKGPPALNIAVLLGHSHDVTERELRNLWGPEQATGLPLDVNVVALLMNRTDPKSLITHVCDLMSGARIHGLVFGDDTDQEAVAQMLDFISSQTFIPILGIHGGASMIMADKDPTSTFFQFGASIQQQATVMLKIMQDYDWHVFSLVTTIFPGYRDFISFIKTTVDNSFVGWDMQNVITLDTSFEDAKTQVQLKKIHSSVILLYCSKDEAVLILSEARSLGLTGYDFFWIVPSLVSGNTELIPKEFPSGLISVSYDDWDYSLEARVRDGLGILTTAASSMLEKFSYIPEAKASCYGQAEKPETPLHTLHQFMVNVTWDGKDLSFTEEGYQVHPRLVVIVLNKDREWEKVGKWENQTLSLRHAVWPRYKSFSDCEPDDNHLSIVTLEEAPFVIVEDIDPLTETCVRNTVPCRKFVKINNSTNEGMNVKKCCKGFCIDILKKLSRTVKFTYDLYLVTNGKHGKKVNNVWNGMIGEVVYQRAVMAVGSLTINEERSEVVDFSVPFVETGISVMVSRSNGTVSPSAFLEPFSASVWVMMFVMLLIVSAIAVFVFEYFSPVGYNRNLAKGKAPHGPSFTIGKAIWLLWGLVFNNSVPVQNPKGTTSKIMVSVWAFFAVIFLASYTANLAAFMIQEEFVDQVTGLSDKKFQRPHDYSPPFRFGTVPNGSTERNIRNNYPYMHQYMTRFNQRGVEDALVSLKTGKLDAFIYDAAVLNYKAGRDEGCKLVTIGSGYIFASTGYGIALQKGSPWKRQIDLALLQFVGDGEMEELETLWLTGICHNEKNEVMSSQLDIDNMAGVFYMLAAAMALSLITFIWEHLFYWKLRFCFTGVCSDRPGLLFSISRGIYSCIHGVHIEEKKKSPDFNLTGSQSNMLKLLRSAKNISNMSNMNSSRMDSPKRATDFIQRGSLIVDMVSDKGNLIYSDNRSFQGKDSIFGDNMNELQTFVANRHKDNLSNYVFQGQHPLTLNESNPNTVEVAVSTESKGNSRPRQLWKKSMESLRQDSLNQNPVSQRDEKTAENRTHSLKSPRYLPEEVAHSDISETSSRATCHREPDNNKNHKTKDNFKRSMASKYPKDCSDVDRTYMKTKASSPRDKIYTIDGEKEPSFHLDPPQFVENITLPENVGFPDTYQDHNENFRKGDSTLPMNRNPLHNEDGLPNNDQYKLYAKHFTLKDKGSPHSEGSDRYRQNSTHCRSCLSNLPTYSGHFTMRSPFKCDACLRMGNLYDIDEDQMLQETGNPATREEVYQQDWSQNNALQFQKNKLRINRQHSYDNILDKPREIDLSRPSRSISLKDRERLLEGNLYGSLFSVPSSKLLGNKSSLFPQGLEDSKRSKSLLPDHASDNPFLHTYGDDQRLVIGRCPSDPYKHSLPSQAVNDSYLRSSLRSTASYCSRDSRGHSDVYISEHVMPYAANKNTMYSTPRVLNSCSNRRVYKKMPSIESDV
# NR1/NR2B [4] = target: T3, NR1/NR2B (Rattus norvegicus, UniProt Q00960); settings: cited from earlier work
# T3 sequence (Q00960 27-1482, other chains not shown): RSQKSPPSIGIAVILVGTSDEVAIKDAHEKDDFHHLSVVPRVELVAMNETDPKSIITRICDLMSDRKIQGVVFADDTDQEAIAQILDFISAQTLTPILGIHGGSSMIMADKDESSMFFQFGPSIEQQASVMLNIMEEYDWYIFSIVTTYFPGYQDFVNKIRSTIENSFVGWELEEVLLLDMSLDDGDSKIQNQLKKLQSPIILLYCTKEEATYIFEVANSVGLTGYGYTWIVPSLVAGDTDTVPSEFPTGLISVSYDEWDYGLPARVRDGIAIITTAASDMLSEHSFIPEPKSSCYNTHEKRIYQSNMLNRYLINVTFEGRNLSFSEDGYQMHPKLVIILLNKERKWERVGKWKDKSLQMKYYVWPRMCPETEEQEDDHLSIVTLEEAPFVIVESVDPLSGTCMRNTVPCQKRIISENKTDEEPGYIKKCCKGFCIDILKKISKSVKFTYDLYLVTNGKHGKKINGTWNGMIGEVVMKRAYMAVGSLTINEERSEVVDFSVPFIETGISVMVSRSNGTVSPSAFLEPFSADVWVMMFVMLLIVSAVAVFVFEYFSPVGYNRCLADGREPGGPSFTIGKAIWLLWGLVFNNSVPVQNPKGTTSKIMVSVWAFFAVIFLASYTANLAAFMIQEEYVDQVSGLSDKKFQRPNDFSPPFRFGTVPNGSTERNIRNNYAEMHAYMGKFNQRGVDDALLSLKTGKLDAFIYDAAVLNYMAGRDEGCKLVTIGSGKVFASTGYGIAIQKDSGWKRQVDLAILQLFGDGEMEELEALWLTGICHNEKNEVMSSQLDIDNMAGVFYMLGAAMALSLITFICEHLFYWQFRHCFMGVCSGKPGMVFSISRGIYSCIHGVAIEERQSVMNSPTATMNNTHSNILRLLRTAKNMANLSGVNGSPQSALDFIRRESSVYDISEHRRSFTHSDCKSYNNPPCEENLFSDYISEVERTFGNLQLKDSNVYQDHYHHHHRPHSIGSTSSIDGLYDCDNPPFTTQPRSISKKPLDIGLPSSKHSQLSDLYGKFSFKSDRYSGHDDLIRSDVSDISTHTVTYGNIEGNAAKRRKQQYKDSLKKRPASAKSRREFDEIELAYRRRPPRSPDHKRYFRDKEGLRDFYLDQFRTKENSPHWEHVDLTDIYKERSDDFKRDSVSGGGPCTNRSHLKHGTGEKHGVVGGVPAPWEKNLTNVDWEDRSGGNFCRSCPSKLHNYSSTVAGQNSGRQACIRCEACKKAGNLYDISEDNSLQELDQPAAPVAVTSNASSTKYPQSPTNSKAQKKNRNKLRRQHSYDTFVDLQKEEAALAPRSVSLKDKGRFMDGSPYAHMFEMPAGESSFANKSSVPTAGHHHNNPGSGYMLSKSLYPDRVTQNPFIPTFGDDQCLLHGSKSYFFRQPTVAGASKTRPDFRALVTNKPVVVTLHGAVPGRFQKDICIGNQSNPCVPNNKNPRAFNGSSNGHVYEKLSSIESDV
# NR1/NR2C [5] = target: T4, NR1/NR2C (Rattus norvegicus, UniProt Q00961); settings: cited from earlier work
# native NMDA receptors [6] = assay: Radioligand binding assay; settings: rat brain synaptosomes; for [3H]CGP39653 mean pKi ± SEM: three to five experiments; for Ki: read-out: [3H]CGP39653 Ki, mean of three to five experiments
# NR1/NR2A [7] = target: T2, NR1/NR2A; type: cell-based; settings: for EC50: NR = no response up to 1000 μM
# NR1/NR2B [8] = target: NR1/NR2B (Rattus norvegicus, UniProt P35439+Q00960); type: cell-based
# NR1/NR2B [9] = target: T3, NR1/NR2B; type: cell-based; settings: NR1/NR2B; for EC50: NR = no response up to 1000 μM
# NR1/NR2C [10] = target: NR1/NR2C (Rattus norvegicus, UniProt P35439+Q00961); type: cell-based
# NR1/NR2C [11] = target: T4, NR1/NR2C; type: cell-based; settings: NR1/NR2C; for I/Imax (relative maximal response): relative to maximal response to glutamate (1.0)
# NR1/NR2D [12] = target: NR1/NR2D (Rattus norvegicus, UniProt P35439+Q62645); type: cell-based
# Sequence of NR1/NR2D (Rattus norvegicus, UniProt P35439+Q62645) (Q62645 28-1323, other chains not shown): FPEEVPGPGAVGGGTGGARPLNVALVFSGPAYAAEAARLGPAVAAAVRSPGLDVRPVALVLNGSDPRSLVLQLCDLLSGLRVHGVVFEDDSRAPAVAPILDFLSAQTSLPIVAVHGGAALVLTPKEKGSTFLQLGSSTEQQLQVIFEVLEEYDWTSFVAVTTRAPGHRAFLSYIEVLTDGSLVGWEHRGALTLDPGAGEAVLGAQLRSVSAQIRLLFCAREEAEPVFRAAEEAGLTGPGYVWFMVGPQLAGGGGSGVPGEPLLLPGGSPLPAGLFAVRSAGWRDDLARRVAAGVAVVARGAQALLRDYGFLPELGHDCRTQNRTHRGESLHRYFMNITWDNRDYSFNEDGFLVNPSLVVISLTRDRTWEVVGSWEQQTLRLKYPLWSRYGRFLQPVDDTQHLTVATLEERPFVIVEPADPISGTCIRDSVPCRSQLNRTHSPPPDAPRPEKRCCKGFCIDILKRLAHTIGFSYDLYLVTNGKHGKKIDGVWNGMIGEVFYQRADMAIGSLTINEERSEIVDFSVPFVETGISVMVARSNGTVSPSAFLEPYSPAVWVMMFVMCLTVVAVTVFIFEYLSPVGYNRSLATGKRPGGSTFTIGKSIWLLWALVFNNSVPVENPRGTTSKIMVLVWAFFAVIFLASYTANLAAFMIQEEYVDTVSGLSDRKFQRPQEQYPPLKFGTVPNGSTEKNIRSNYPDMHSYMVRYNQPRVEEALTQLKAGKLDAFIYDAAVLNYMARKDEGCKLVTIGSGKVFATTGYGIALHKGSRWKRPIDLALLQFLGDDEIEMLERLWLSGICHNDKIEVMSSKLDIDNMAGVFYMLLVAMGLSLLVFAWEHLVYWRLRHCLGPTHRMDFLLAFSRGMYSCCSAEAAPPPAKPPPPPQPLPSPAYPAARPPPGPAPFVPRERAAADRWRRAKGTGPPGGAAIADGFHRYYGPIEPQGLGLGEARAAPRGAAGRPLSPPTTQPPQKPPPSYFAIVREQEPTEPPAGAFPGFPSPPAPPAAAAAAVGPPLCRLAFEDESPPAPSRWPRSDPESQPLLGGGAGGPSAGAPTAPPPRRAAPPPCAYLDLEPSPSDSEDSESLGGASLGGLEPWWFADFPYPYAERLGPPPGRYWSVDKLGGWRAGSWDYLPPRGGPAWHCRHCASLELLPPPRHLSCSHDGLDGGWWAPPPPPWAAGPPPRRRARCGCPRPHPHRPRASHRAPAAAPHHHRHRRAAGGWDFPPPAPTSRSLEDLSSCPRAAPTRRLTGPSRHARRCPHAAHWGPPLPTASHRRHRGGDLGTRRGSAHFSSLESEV
# NR1/NR2D [13] = target: T1, NR1/NR2D; type: cell-based; settings: for Agonist activity (in words) / I/Imax (relative maximal response) / EC50 / pEC50 (mean ± SEM): NR1/NR2D; for I/Imax (relative maximal response): relative to maximal response to glutamate (1.0)
# [14] = tested on: native excitatory amino acid transporters (EAATs); settings: cited from earlier work
# [15] = tested on: NR2A (Y730 to phenylalanine); settings: mutant vs wild type NR2A; cited from earlier work
# NR2D(Y732F) = settings: mutant vs wild type NR2D; cited from earlier work
# [16] = relative to maximal response to glutamate (1.0)
# T1 sequence (Q62645 28-1323, other chains not shown): as above
smiles,measurement,setting,value
"C[C@H](C[C@H](N)C(=O)O)C(=O)O [SYM2081, (2S,4R)-4-methylglutamate]",Higher potency at NR1/NR2D over NR1/NR2A,NR1/NR2D [1]; NR1/NR2D vs NR1/NR2A,46 fold
"CN[C@H](CC(=O)O)C(=O)O [NMDA, N-methyl-D-aspartic acid]",Ki,native NMDA receptors [2],6.2 µM
same,EC50,NR1/NR2A [3],75 µM
same,pEC50 (mean ± SEM),NR1/NR2A [3],4.13±0.07
same,I/Imax (relative maximal response),NR1/NR2A [3]; relative to glutamate (1.0),0.90 ± 0.04
same,EC50,NR1/NR2B [4],22 µM
same,pEC50 (mean ± SEM),NR1/NR2B [4],4.66±0.03
same,I/Imax (relative maximal response),NR1/NR2B [4]; relative to glutamate (1.0),0.77 ± 0.01
same,EC50,NR1/NR2C [5],23 µM
same,pEC50 (mean ± SEM),NR1/NR2C [5],4.63±0.02
same,I/Imax (relative maximal response),NR1/NR2C [5]; relative to glutamate (1.0),0.73 ± 0.02
same,EC50,NR1/NR2D [1]; NR1/NR2D,8.3 µM
same,pEC50 (mean ± SEM),NR1/NR2D [1]; NR1/NR2D,5.08±0.04
same,I/Imax (relative maximal response),"NR1/NR2D [1]; NR1/NR2D, relative to glutamate (1.0)",0.80 ± 0.02
"O=C(O)[C@@H]1CN[C@H]1C(=O)O [D-trans-ADC, (2R,3R)-Azetidine-2,3-dicarboxylic acid]",Affinity for glutamate binding site of native NMDA receptors (in words),native NMDA receptors [6],essentially without affinity
same,[3H]CGP39653 mean pKi ± SEM,native NMDA receptors [6],4.05 ± 0.03
same,Ki,native NMDA receptors [6],90 µM
same,EC50,NR1/NR2A [7],> 1000 µM
same,EC50,NR1/NR2B [8],> 1000 µM
same,Agonist activity (in words),NR1/NR2B [9],activated
same,EC50,NR1/NR2C [10],> 1000 µM
same,Agonist activity (in words),NR1/NR2C [11],activated
same,EC50,NR1/NR2D [12],660 µM
same,Agonist activity (in words),NR1/NR2D [13],activated
same,I/Imax (relative maximal response),NR1/NR2D [13],0.69 ± 0.01
O=C(O)[C@H]1NC[C@H]1C(=O)O [L-cis-ADC],Affinity for glutamate binding site of native NMDA receptors (in words),native NMDA receptors [6],essentially without affinity
same,Ki,native NMDA receptors [6],> 100 µM
same,Agonist activity (in words),NR1/NR2A [7],unable to activate
same,EC50,NR1/NR2A [7],> 1000 µM
same,Agonist activity (in words),NR1/NR2B [9],unable to activate
same,EC50,NR1/NR2B [9],> 1000 µM
same,Agonist activity (in words),NR1/NR2C [11],only at high concentrations (1000 μM) some activation
same,EC50,NR1/NR2C [11],> 1000 µM
same,Agonist activity (in words),NR1/NR2D [13],only at high concentrations (1000 μM) some activation
same,EC50,NR1/NR2D [13],> 1000 µM
O=C(O)[C@H]1CN[C@@H]1C(=O)O [L-trans-ADC],[3H]CGP39653 mean pKi ± SEM,native NMDA receptors [6],5.04 ± 0.10
same,Ki,native NMDA receptors [6],10 µM
same,Agonist activity (in words),NR1/NR2A [7],able to (partially) activate
same,pEC50 (mean ± SEM),NR1/NR2A [7],3.32±0.03
same,EC50,NR1/NR2A [7],470 µM
same,I/Imax (relative maximal response),NR1/NR2A [7]; [16],0.38 ± 0.02
same,pEC50 (mean ± SEM),NR1/NR2B [9],3.76±0.01
same,EC50,NR1/NR2B [9],170 µM
same,I/Imax (relative maximal response),NR1/NR2B [9]; [16],0.48 ± 0.01
same,EC50,NR1/NR2C [11],95 µM
same,pEC50 (mean ± SEM),NR1/NR2C [11],4.02±0.02
same,I/Imax (relative maximal response),NR1/NR2C [11],0.73 ± 0.03
same,EC50,NR1/NR2D [13],50 µM
same,pEC50 (mean ± SEM),NR1/NR2D [13],4.30±0.02
same,Preference (agonist potency) for NR1/NR2D over NR1/NR2A,NR1/NR2D [13]; NR1/NR2D vs NR1/NR2A,9.4 fold
same,Preference (agonist potency) for NR1/NR2D over NR1/NR2B,NR1/NR2D [13]; NR1/NR2D vs NR1/NR2B,3.4 fold
same,Preference (agonist potency) for NR1/NR2D over NR1/NR2C,NR1/NR2D [13]; NR1/NR2D vs NR1/NR2C,1.9 fold
same,I/Imax (relative maximal response),NR1/NR2D [13],0.80 ± 0.01
same,Affinity at native EAATs (in words),[14],affinity in the medium micromolar range
"O=C(O)[C@H]1CN[C@H]1C(=O)O [D-cis-ADC, (2R,3S)-Azetidine-2,3-dicarboxylic acid]",[3H]CGP39653 mean pKi ± SEM,native NMDA receptors [6],4.74 ± 0.13
same,Ki,native NMDA receptors [6],21 µM
same,EC50,NR1/NR2A [7],> 1000 µM
same,Agonist activity (in words),NR1/NR2B [9],activated
same,EC50,NR1/NR2B [9],> 3000 µM
same,Agonist activity (in words),NR1/NR2C [11],activated; also recorded: partial agonist
same,EC50,NR1/NR2C [11],720 µM
same,pEC50 (mean ± SEM),NR1/NR2C [11],3.15±0.06
same,I/Imax (relative maximal response),NR1/NR2C [11],0.47 ± 0.03
same,Agonist activity (in words),NR1/NR2D [13],activated; also recorded: partial agonist
same,EC50,NR1/NR2D [13],230 µM
same,pEC50 (mean ± SEM),NR1/NR2D [13],3.63±0.01
same,I/Imax (relative maximal response),NR1/NR2D [13],0.67 ± 0.01
"N[C@@H](CCC(=O)O)C(=O)O [glutamate, (S)-glutamate]",Decrease of potency by mutation Y730 to phenylalanine in NR2A,[15],45 fold
same,Change of potency on NR2D(Y732F) (in words),NR2D(Y732F),slightly increased
